# Laboratory results from patent publication US20240158446A1, “CYCLIC COMPOUND HAVING SELECTIVE INHIBITORY ACTION ON KRAS OVER HRAS AND NRAS” (CHUGAI SEIYAKU KABUSHIKI KAISHA, priority 2021, published 2024).
# Like-named read-outs stand apart in the source and are kept apart here. Where a SMILES comes first, the peptide text is derived from it. Bridges are numbered along the chain shown (N, C = ends). [ ]: non-standard residue; d: D form. The star is where a group is joined. hPhe(3-Cl-4-CF3) = N[C@@H](CCc1ccc(C(F)(F)F)c(Cl)c1)C(=O)O; NPrPhe(4-CF3) = CCCN[C@@H](Cc1ccc(C(F)(F)F)cc1)C(=O)O; NMeGly(cPent) = CN[C@H](C(=O)O)C1CCCC1; Pro(4,4-F2) = O=C(O)[C@@H]1CC(F)(F)CN1; NMeD = CN[C@@H](CC(=O)O)C(=O)O; NMeL = CN[C@@H](CC(C)C)C(=O)O; Morpholide = C1CN(*)CCO1; NMeA = CN[C@@H](C)C(=O)O; Ac5c = NC1(C(=O)O)CCCC1; Aze = O=C(O)[C@@H]1CCN1; Ac4c = NC1(C(=O)O)CCC1; Sar = CNCC(=O)O
# Legend:
# [1] = biological target: GDP-bound NRAS wild-type protein (Homo sapiens, UniProt P01111); test: Binding to NRAS by surface plasmon resonance (SPR), Single Cycle Kinetics; settings: for NRAS/KRAS (ratio of KD value for NRAS to KD value for KRAS) / NRAS/KRAS (ratio of KD value with respect to NRAS to KD value with respect to KRAS): SPR, GDP-bound NRAS wild-type protein vs GDP-bound KRAS wild-type protein
# [2] = biological target: GDP-bound KRAS wild-type protein (Homo sapiens, UniProt P01116); test: Binding to KRAS by surface plasmon resonance (SPR), Single Cycle Kinetics; settings: GDP-bound KRAS wild-type protein, read-out: KRAS KD
# [3] = biological target: GDP-bound HRAS wild-type protein (Homo sapiens, UniProt P01112); test: Binding to HRAS by surface plasmon resonance (SPR), Single Cycle Kinetics; settings: for HRAS/KRAS (ratio of KD value for HRAS to KD value for KRAS) / HRAS/KRAS (ratio of KD value with respect to HRAS to KD value with respect to KRAS): SPR, GDP-bound HRAS wild-type protein vs GDP-bound KRAS wild-type protein
# [4] = SPR Single Cycle Kinetics, 1:1 binding model
# Sequence of GDP-bound KRAS wild-type protein (P01116 whole entry): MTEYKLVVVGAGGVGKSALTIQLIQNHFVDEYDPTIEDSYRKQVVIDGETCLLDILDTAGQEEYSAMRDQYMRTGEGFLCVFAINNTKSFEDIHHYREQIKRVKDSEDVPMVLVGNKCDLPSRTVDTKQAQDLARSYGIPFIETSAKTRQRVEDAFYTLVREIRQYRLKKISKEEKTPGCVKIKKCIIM
# Sequence of GDP-bound HRAS wild-type protein (P01112 whole entry): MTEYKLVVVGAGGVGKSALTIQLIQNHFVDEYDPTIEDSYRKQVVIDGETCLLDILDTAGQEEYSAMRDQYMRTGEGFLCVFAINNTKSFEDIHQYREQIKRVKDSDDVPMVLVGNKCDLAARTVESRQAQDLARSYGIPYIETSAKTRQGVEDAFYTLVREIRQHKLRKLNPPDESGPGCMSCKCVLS
# Sequence of GDP-bound NRAS wild-type protein (P01111 whole entry): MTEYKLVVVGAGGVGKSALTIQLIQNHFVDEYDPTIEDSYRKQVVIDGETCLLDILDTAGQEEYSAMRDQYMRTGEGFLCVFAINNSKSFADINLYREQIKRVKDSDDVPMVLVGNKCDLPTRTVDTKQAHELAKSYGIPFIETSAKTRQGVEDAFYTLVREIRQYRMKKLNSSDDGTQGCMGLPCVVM
"Kd ([2]; SPR, Single Cycle Kinetics)","Kd [2, 4]",SMILES,NRAS/KRAS (ratio of KD value for NRAS to KD value for KRAS) [1],HRAS/KRAS (ratio of KD value for HRAS to KD value for KRAS) [3],NRAS/KRAS (ratio of KD value with respect to NRAS to KD value with respect to KRAS) [1],HRAS/KRAS (ratio of KD value with respect to HRAS to KD value with respect to KRAS) [3],"NRAS/KRAS (ratio of KD value with respect to GDP-bound NRAS wild-type protein to KD value with respect to KRAS) ([1]; SPR KD ratio NRAS/KRAS, class symbols)","HRAS/KRAS (ratio of KD value with respect to GDP-bound HRAS wild-type protein to KD value with respect to KRAS) ([3]; SPR KD ratio HRAS/KRAS, class symbols)"
0.11 nM,–,"CCO[C@@H]1C[C@H]2C(=O)NC3(CCC3)C(=O)N(C)[C@@H](C3CCCC3)C(=O)N(C)[C@H](C(=O)N(C)C)CC(=O)N(C)[C@@H](Cc3cccc(Cl)c3)C(=O)N[C@@H]([C@@H](C)CC)C(=O)N(C)CC(=O)N(C)[C@H]3C/C=C\CCN(C3=O)[C@@H](Cc3ccc(C(F)(F)F)cc3)C(=O)N(C)CC(=O)N[C@@H](CCc3cc(F)c(C(F)(F)F)c(F)c3)C(=O)N2C1 [PP1127, (2S,8S,12R,14S,20S,23S,27S,30S,36S,38Z)-27-[(3-chlorophenyl)methyl]-20-cyclopentyl-8-[2-[3,5-difluoro-4-(trifluoromethyl)phenyl]ethyl]-12-ethoxy-N,N,4,19,22,26,32,35-octamethyl-30-[(1S)-1-methylpropyl]-3,6,9,15,18,21,25,28,31,34,42-undecaoxo-2-[[4-(trifluoromethyl)phenyl]methyl]spiro[1,4,7,10,16,19,22,26,29,32,35-undecazatricyclo[34.5.1.0^10,14]dotetracont-38-ene-17,1′-cyclobutane]-23-carboxamide]",AA (a compound having 20 or more is denoted as AA),A (a compound having 10 or more and less than 20 is denoted as A),–,–,–,–
–,0.9 nM,CCCN1C(=O)CN(C)C(=O)CN(C)C(=O)[C@H]([C@@H](C)CC)NC(=O)[C@H](CC(C)C)N(C)C(=O)C[C@@H](C(=O)N2CCOCC2)NC(=O)[C@H](C2CCCC2)N(C)C(=O)C2(CCC2)NC(=O)[C@@H]2CCCN2C(=O)[C@H](CCc2ccc(C(F)(F)F)c(Cl)c2)NC(=O)CN(C)C(=O)[C@@H]1Cc1ccc(C(F)(F)F)cc1 [PP0320] ([NMeL]I[Sar][Sar][NPrPhe(4-CF3)][Sar][hPhe(3-Cl-4-CF3)]P[Ac4c][NMeGly(cPent)]D-Morpholide; lactam N-11),B (a compound having 3 or more and less than 10 is denoted as B),B (a compound having 3 or more and less than 10 is denoted as B),–,–,–,–
–,0.054 nM,"CCCN1C(=O)[C@@H]2CCN2C(=O)[C@H](C)N(C)C(=O)[C@H]([C@@H](C)CC)NC(=O)[C@H](CC(C)C)N(C)C(=O)C[C@@H](C(=O)N(C)C)N(C)C(=O)[C@H](C2CCCC2)N(C)C(=O)C2(CCCC2)NC(=O)[C@@H]2CC(F)(F)CN2C(=O)[C@H](CCc2ccc(C(F)(F)F)c(Cl)c2)NC(=O)CN(C)C(=O)[C@@H]1Cc1ccc(C(F)(F)F)cc1 [PP0436] ([NMeL]I[NMeA][Aze][NPrPhe(4-CF3)][Sar][hPhe(3-Cl-4-CF3)][Pro(4,4-F2)][Ac5c][NMeGly(cPent)][NMeD]-NMe2; lactam N-11)",–,–,C (A compound having a KD ratio of 0.1 or more and less than 3 is denoted as C),C (A compound having a KD ratio of 0.1 or more and less than 3 is denoted as C),–,–
–,0.094 nM,CCO[C@@H]1C[C@H]2C(=O)NC3(CCC3)C(=O)N(C)[C@@H](C3CCCC3)C(=O)N(C)[C@H](C(=O)N(C)C)CC(=O)N(C)[C@@H](C)C(=O)N[C@@H]([C@H](C)CC)C(=O)N(C)CC(=O)N(C)[C@H]3CCCCN(C3=O)[C@@H](Cc3ccc(C(F)(F)F)cc3)C(=O)N(C)CC(=O)N[C@@H](CCc3cc(F)c(C(F)(F)F)c(F)c3)C(=O)N2C1 [PP0730],–,–,C (A compound having a KD ratio of 0.1 or more and less than 3 is denoted as C),C (A compound having a KD ratio of 0.1 or more and less than 3 is denoted as C),–,–
0.42 nM,–,CCO[C@@H]1C[C@H]2C(=O)NC3(CCC3)C(=O)N(C)[C@@H](C3CCCC3)C(=O)N(C)[C@H](C(=O)N(C)C)CC(=O)N(C)[C@@H](Cc3ccc(F)cc3)C(=O)N[C@@H]([C@@H](C)CC)C(=O)N(C)CC(=O)N(C)[C@H]3CCCCCN(C3=O)[C@@H](Cc3ccc(C(F)(F)F)cc3)C(=O)N(C)CC(=O)N[C@@H](CCc3cc(F)c(C(F)(F)F)c(F)c3)C(=O)N2C1 [PP0936],B (a compound having 3 or more and less than 10 is denoted as B),B (a compound having 3 or more and less than 10 is denoted as B),–,–,–,–
0.066 nM,–,CC[C@H](C)[C@@H]1NC(=O)[C@H](CC(C)C)N(C)C(=O)C[C@@H](C(=O)N2CCOCC2)N(C)C(=O)[C@H](C2CCCC2)N(C)C(=O)C2(CCC2)NC(=O)[C@@H]2[C@@H](OC)CCN2C(=O)[C@H](CCc2cc(F)c(C(F)(F)F)c(F)c2)NC(=O)CN(C)C(=O)[C@H](Cc2ccc(C(F)(F)F)cc2)N2CCCC[C@@H](C2=O)N(C)C(=O)CN(C)C1=O [PP1075],B (a compound having 3 or more and less than 10 is denoted as B),B (a compound having 3 or more and less than 10 is denoted as B),–,–,–,–
0.71 nM,–,CCO[C@@H]1C[C@H]2C(=O)NC3(CC(C)(C)C3)C(=O)N(C)[C@@H](C(CC)CC)C(=O)N(C)[C@H](C(=O)N3CCCC3)CC(=O)N(C)[C@@H](COC)C(=O)N[C@@H]([C@@H](C)CC)C(=O)N(C)CC(=O)N(C)[C@H]3C/C=C\CCN(C3=O)[C@@H](Cc3ccc(C)cc3)C(=O)N(C)CC(=O)N[C@@H](CCc3ccc(C(F)(F)F)c(OC)c3)C(=O)N2C1 [PP2167],AA (a compound having 20 or more is denoted as AA),A (a compound having 10 or more and less than 20 is denoted as A),–,–,–,–
0.69 nM,–,CCO[C@@H]1C[C@H]2C(=O)NC3(CC(C)(C)C3)C(=O)N(C)[C@@H](C(CC)CC)C(=O)N(C)[C@H](C(=O)N3CCCC3)CC(=O)N(C)[C@@H](C)C(=O)N[C@@H]([C@@H](C)CC)C(=O)N(C)CC(=O)N(C)[C@H]3C/C=C\CCN(C3=O)[C@@H](Cc3ccc(C)cc3)C(=O)N(C)CC(=O)N[C@@H](CCc3ccc(Cl)c(Cl)c3)C(=O)N2C1 [PP2187],AA (a compound having 20 or more is denoted as AA),A (a compound having 10 or more and less than 20 is denoted as A),–,–,–,–
–,0.055 nM,CCC[C@H]1C(=O)N[C@@H]([C@@H](C)CC)C(=O)N(C)CC(=O)N(C)[C@H]2C/C=C\CCN(C2=O)[C@@H](Cc2ccc(C(F)(F)F)cc2)C(=O)N(C)CC(=O)N[C@@H](CCc2ccc3sc(F)c(C)c3c2)C(=O)N2C[C@H](OCC)C[C@H]2C(=O)NC2(CC(C)(C)C2)C(=O)N(C)[C@@H](C2CCCC2)C(=O)N(C)[C@H](C(=O)N(C)C)CC(=O)N1C [PP2948],–,–,–,–,A (a compound having 10 or more and less than 20 is denoted as A),A (a compound having 10 or more and less than 20 is denoted as A)
1.9 nM,–,CCC[C@H]1C(=O)N[C@@H]([C@@H](C)CC)C(=O)N(C)CC(=O)N(C)[C@H]2C/C=C\CCN(C2=O)[C@@H](Cc2ccc(C(F)(F)F)cc2)C(=O)N(C)CC(=O)N[C@@H](CCc2ccc(Cl)c(Cl)c2)C(=O)N2CCCCC[C@H]2C(=O)NC2(CC(C)(C)C2)C(=O)N(C)[C@@H](C(CC)CC)C(=O)N(C)[C@H](C(=O)N(C)C)CC(=O)N1C [PP3031],AA (a compound having 20 or more is denoted as AA),A (a compound having 10 or more and less than 20 is denoted as A),–,–,–,–
